Test results reported in article PMC8970883, “Simultaneous Determination of Seven Phenolic Acids, Two Flavonoids, and Tussilagone in Rat Plasma after Administration of Farfarae Flos Extract by LC–MS/MS” (Evidence-based Complementary and Alternative Medicine : eCAM, 2022).
Where two headings read alike, the source gives them in different places.

Assays:
[1] = Pharmacokinetic study in rats after intragastric administration of Farfarae Flos extract (plasma, LC-MS/MS); format: in vivo; settings: for Cmax / Tmax / half-life / MRT last / MRT inf: male; for Cmax: rat, plasma, po; for MRT last: read-out: MRT(0–24h); for MRT inf: read-out: MRT(0–∞)
Excerpt: A high-performance liquid chromatography instrument was used to separate three types of compounds (Agilent 1200 series, USA). The HPLC instrument is composed of four parts; a G1322A degasser, G1312A Bin Pump, G1367B auto-sampler, and G1316A thermostatic column compartment. Three types of compounds and three internal standards (ISs) were separated on an Eclipse Plus C18 (4.6 × 100 mm, 1.8 μm). The mobile phase was composed of formic acid aqueous solution (A) and formic acid methanol solution (B). The concentration of formic acid in both A and B solution was 0.1% (v/v). The gradient elution was as follows. The proportion of 10% B changes to 40% from 0 min to 3mins. 40% B changes to 90% from 16 to 18 min. B is maintained at 100% from 19 to 28 min. The flow rate, sample injected volume, and column temperature was 0.35 mL·min^−1, 10 μL, and 35°C, respectively.
Quantitative analysis of all samples was performed on Sciex API 3200 with an electrospray ionization (ESI) source. Analyst 1.6.2 workstation for instrument operation, data management, and data analysis were employed to analyze and process data (AB, Sciex). Ten analyzed compounds and three ISs were optimized during multiple reactions monitoring (MRM). […] MRM parameters of CCLA were set at 353.1-191.0. […] MRM parameters of IAB were set as 515.3-353.2 and MRM parameters of IAA were set at 515.2-353.0. MRM parameters of IAC and tussilagone were set as 515.3-352.9, 391.4-217.4, respectively.
Twenty male rats (4 months old, weight 240 ± 20 g) were obtained commercially from Vital River Laboratory Animal Company (Beijing, China). Before the pharmacokinetic experiments, they were free to eat food and drink water for one week for adapting to the environment when the dark light cycle was 12 hours, while the temperature was maintained at 25 ± 5°C. The animal experiments were guided and strictly approved by Tianjin Hospital animal ethics committee. They were fasted for 12 hours and could only drink freely water before intragastric administration of Farfarae Flos extract. Ten rats in each group were employed for eliminating data variation caused by different animal individuals. All rats in groups 1 and group 2 were orally administrated one time at two dosages of Farfarae Flos extract (carboxymethyl cellulose sodium salt (0.5%) was used to suspend the extract to prepare the administration solution 3.90 g·kg^−1 and 7.80 g·kg^−1), respectively. Rats were anesthetized with ether. The heparinized 1.5 mL polythene tube was used to collect bank plasma samples before administering dose of the extract. About 250 μL plasma samples were collected at each collecting points of 5 min, 10 min, 0.25 h, 0.50 h, 0.75 h, 1 h, 2 h, 4 h, 8 h, 12 h, 24 h, and 36 h via fossa orbitalis after dosing. All plasma samples from collecting points need to be centrifuged at 4,000 rpm for ten minutes. The supernatant fluid of centrifuged plasma samples was obtained and immediately stored at −20°C in a refrigerator until they were analyzed.
The maximum concentration (Cmax) and the time to reach the maximum concentration (Tmax) of ten target compounds were directly calculated by the real concentration-time data in the plasma. The data were expressed as mean ± SD.
Ten microliters of ISs solution (contained puerarin, ferulic acid, and artemisinin) and the plasma sample (100 μL) were added into a clean tube, and then acetonitrile (400 μL) was added to precipitate protein. After centrifugation at 14000 rpm for 10 minutes, a mild nitrogen flow was used to evaporate the liquid of the supernatant to dryness. Then, the residue was dissolved in methanol (100 μL). The solution was vortexed for 3 min, mixed for 3 minutes with ultrasound, and centrifuged for 10 min. Finally, the solution (10 μL) was used to detect concentration of ten target compounds in rat plasma.

[2] = Stability of QC samples in rat plasma (24 h, freeze-thaw, 4 weeks); format: in vitro ADME; settings: six replicates; for Freeze-thaw stability, percent remaining: freeze-thaw cycles −20°C to 20°C; for Long stability Remain (%): stored at −80°C for 4 weeks; for 24 h stability Remain (%): 24 hours at 20°C
Protocol: Stock solution of 10 analytical compounds (1.00 mg·mL^−1) and three internal standards (ISs) was dissolved in methanol and placed in the refrigerator before testing. Methanol was used to prepare ferulic acid (IS1), puerarin (IS2), and artemisinin (IS3) solutions to reach a concentration of 1 μg mL^−1, respectively. A specific volume of each analyte stock solution is mixed together to prepare the standard working solution containing 10 analytes with a concentration of 10 times at LLOQ and three levels (high, medium, and low). Quality control (QC) samples for methodological validation were prepared to obtain the final concentration by adding standard working solution (10 μL) into blank plasma samples (100 μL).
Four concentration levels of ICB and ICA were 4, 12, 400, and 12000 ng mL^−1, respectively. Four concentration levels of caffeic acid were 10, 30, 1000, and 30000 ng·mL^−1, respectively.
In the stability test, 24-hour stability (The samples were placed for 24 hours at 20°C and then measured), freeze-thaw cycles (The sample was injected after the temperature changing from −20°C to 20°C), and 4 weeks stability (The sample was determined after stored at −80°C for 4 weeks) of representative QC samples were all tested. All of them were assayed with six replicates.

[3] = previous pharmacokinetic study on chlorogenic acid ref 15; cited from earlier work
[4] = 3.9 g/kg, oral Farfarae Flos extract 3.9 g·kg^−1, mean ± SD
[5] = rat plasma, oral Farfarae Flos extract 3.9 g·kg^−1, mean ± SD
[6] = rat plasma, oral Farfarae Flos extract 7.8 g·kg^−1, mean ± SD
[7] = high concentration level (3000-30000 ng·mL^−1)
[8] = low concentration level (3-30 ng·mL^−1)
[9] = medium concentration level (100-1000 ng·mL^−1)

| Cmax [1, 4] [ng/mL] | Tmax [1, 5] [h] | half-life [1, 5] [h] | MRT last [1, 5] [h] | MRT inf [1, 5] [h] | Tmax [1, 6] [h] | half-life [1, 6] [h] | MRT last [1, 6] [h] | MRT inf [1, 6] [h] | AUC(0–24h) [1, 5] [ng/mL ∗ h] | AUC(0–∞) [1, 5] [ng/mL ∗ h] | AUC(0–24h) [1, 6] [ng/mL ∗ h] | AUC(0–∞) [1, 6] [ng/mL ∗ h] | Freeze-thaw stability, percent remaining [2, 7] [%] | Long stability Remain (%) [2, 7] [%] | Long stability Remain (%) [2, 8] [%] | Freeze-thaw stability, percent remaining [2, 9] [%] | Compound | also measured |
| --- | --- | --- | --- | --- | --- | --- | --- | --- | --- | --- | --- | --- | --- | --- | --- | --- | --- | --- |
| 538 ± 489 | 0.64 ± 0.244 | 2.16 ± 1.46 | 4.4 ± 1.71 | 5.41 ± 2.04 | 0.38 ± 0.14 | 1.28 ± 0.56 | 4.63 ± 1.36 | 5.32 ± 1.55 | 1425 ± 1046 | 1467 ± 1044 | 3611 ± 1023 | 3692 ± 1052 | 115 | 112 | 114 | 88.7 | O=C(/C=C/c1ccc(O)c(O)c1)O[C@@H]1C[C@](O)(C(=O)O)C[C@@H](O)[C@H]1O [CLA, chlorogenic acid] | MRT [3]: 5.08 ± 0.89 h; Tmax [3]: 0.70 ± 0.19 h |
| 0.83 ± 0.5 | 0.44 ± 0.38 | 0.28 ± 0.2 | 0.87 ± 0.134 | 3.12 ± 2.62 | 0.4 ± 0.33 | 0.82 ± 0.72 | 2.42 ± 2.1 | 6.98 ± 9.13 | 1.06 ± 0.564 | 2.19 ± 1.98 | 35.48 ± 42.302 | 47.12 ± 49.445 | 91.8 | 109 | 101 | 115 | C=C1[C@H](OC(=O)/C=C(\C)CC)C[C@@H](C(C)C)[C@@H]2[C@@H]([C@@H](C)OC(C)=O)C(=O)C[C@@H]12 [Tussilagone, tussilagone] | Cmax ([1]; 7.8 g/kg, oral Farfarae Flos extract 7.8 g·kg^−1, mean ± SD): 18.1 ± 13 ng/mL; Terminal elimination half-life ([1]; rat plasma, compared among the three types of compounds, Farfarae Flos extract 3.90 and 7.80 g·kg^−1): shortest; 24 h stability Remain (%) [2, 7]: 95.0%; 24 h stability Remain (%) [2, 8]: 100%; Freeze-thaw stability, percent remaining [2, 8]: 83.9%; 24 h stability Remain (%) [2, 9]: 92.1%; Long stability Remain (%) [2, 9]: 107% |
